Source: patent publication US6552010B1 (Genelabs Technologies, Inc., priority 1999, dated 2003)

Legend:
SLE patients [1] = assay: Clinical trial: percent responders (weighted average change from baseline, no clinical deterioration); assay type: in vivo, human; details: 200 mg DHEA per day orally
Procedure: (§1) Clinical trial results were analyzed for each group (placebo and DHEA-treated) as a whole (“per-protocol”), as well as broken down into three subgroups: all patients with SLEDAI values greater than 2 (“active SLE”), and patients having SLEDAI values greater than 2 and receiving corticosteroids and/or immunosuppressives (“more severe SLE”).
(§2) Patients received 200 mg DHEA per day, administered orally in capsule form, or with a non-drug capsule (placebo). Mean duration of the treatment for each group was somewhat higher for the placebo group (308.4 days for placebo vs 288.4 days for DHEA, but median durations were almost the identical (362 vs. 359 days, respectively.).
The last three columns of the table show the results of the study for patients experiencing at least one flare during the study.

SLE patients [2] = assay: Clinical trial: effect of DHEA treatment on SLE flares; assay type: in vivo, human; details: for Patients with at least one flare, patients/total / Patients with at least one flare, percent: 200 mg DHEA per day orally
Procedure: A clinical trial was conducted to determine the effect of DHEA treatment on SLE flares. An SLE flare is a significant new clinical manifestation of the disease (i.e., one that was not previously present in the patient or not previously as severe) and/or a clinical intervention. Table 6 identifies the clinical findings or interventions that were scored as flares in the present study. Any patient having at least one of these finding or interventions was scored as having a flare.
as §1, §2
At about 200 days of treatment, incidence of flare is at least about 5% lower in the treated patients, and from this point on, the difference in flare incidence between the treated and placebo patients grows to at least about 10%.

SLE patients [3] = assay: Clinical trial: responders by window analysis of SLEDAI, SLAM, Patient VAS and KFSS; assay type: in vivo, human; details: for Responders (3% window), number of patients / Responders (3% window), percent / Responders (5% window), number of patients / Responders (5% window), percent / Responders (10% window), number of patients / Responders (10% window), percent: 200 mg DHEA per day orally
Procedure: For each of the disease activity variables (SLEDAI and SLAM) and constitutional symptom variables (Patient VAS and KFSS), the value of interest for each patient is determined as the difference between a pretreatment baseline value, calculated as the mean of two baseline values, taken prior to any treatment with DHEA), and values taken during treatment, calculated as the mean of all values obtained during on-treatment scheduled visits, e.g., 13, 26, 39, and 52 weeks of treatment.
For each of the variables, an improvement in the variable is defined as either (i) no change in the variable or (ii) a decrease in the variable. Thus, for example, an improvement in a baseline SLEDAI score of 5.00 would be any value 5.00 or less. A change in a variable that represents a worsening of the state or condition is any increase in the measured value.
Thus, for a baseline SLEDAI value of 5.0, and a 3% cap, the maximum allowed increase in SLEDAI value, for classification as a 3% responder is 0.15
The mean baseline scores represent the mean of two value determinations made prior to treatment.
Each group, in turn, can be broken down into three subgroups: (I) total patient population (II) all patients with SLEDAI values greater than 2, and (III) patients having SLEDAI values greater than 2 and currently being treated with prednisone (at dose greater than 2 mg/prednisone /day), where the number of patients in each subgroup is indicated by N in the Table 5.
as §2, with “Treatment was with” for “Patients received”, “(308” for “(308.4”
The three columns in the table represent total of the three subgroups for both the placebo and treatment group. The three rows represent responders in which an improvement (no change or decrease in value) in three the three of the four variables was observed and an increase in the fourth variable of no more than 3% (first row), 5% (second row), and 10% (third row) of the pretreatment baseline value.

[4] = Uptake and absorption of DHEA polymorph preparations upon oral administration
[5] = Stability of DHEA polymorph preparations under ambient conditions
[6] = Active SLE (SLEDAI > 2 at baseline)
[7] = More Severe SLE (SLEDAI > 2 and receiving corticosteroids and/or immunosuppressives at baseline)
[8] = Group II: All patients with SLEDAI > 2
[9] = Group II: All patients with SLEDAI > 2, N = 132
[10] = Group III: All patients with SLEDAI > 2, Pred > 0
[11] = Group III: All patients with SLEDAI > 2, Pred > 0, N = 73

Q: For `C[C@]12CC[C@H](O)CC1=CC[C@@H]1[C@@H]2CC[C@]2(C)C(=O)CC[C@@H]12` [DHEA, dehydroepiandrosterone], which “Responders, patients/total” value (SLE patients [1]; [6]) is on record?
A: Its value is “(87/132)”.

Q: And the “Responders, percent” value (SLE patients [1]; [6])?
A: Its value is 66%.

Q: And the “Responders, patients/total” value (SLE patients [1]; [7])?
A: The value was “(51/80)”.

Q: What about the “Responders, percent” value (SLE patients [1]; [7]) of the same compound?
A: Its value is 64%.

Q: And the “Responders, patients/total” value (SLE patients [1]; Per Protocol population)?
A: Its value is “(99/170)”.

Q: And the “Responders, percent” value (SLE patients [1]; Per Protocol population)?
A: Its value is 58%.

Q: And the “Patients with at least one flare, patients/total” value (SLE patients [2]; [6])?
A: Its value is “(31/132)”.

Q: What about the “Patients with at least one flare, percent” value (“Patients … percent” below) (SLE patients [2]; [6]) of the same compound?
A: The value was 24%.

Q: And the “Time of treatment at which reduction of the risk of flare begins” value (SLE patients [2]; FIG. 1, active SLE patients, compared to the placebo group)?
A: Its value is “about 85 days”.

Q: What about the “Incidence of flare lower in treated patients than placebo” value (SLE patients [2]; FIG. 1, at about 200 days of treatment) of the same compound?
A: Its value is “at least 5%”.

Q: And the “Difference in flare incidence between treated and placebo patients” value (SLE patients [2]; FIG. 1, grows to this after about 200 days of treatment)?
A: The value was “at least 10%”.

Q: What about the “Patients with at least one flare, patients/total” value (SLE patients [2]; [7]) of the same compound?
A: Its value is “(21/80)”.

Q: What about the “Patients … percent” value (SLE patients [2]; [7]) of the same compound?
A: The value was 26%.

Q: What about the “Patients with at least one flare, patients/total” value (SLE patients [2]; Per Protocol population) of the same compound?
A: Its value is “(37/170)”.

Q: And the “Patients … percent” value (SLE patients [2]; Per Protocol population)?
A: Its value is 22%.

Q: What about the “Effect on occurrence of flares” value (SLE patients [2]; Table 8 study, effect increased with severity of disease) of the same compound?
A: Its value is “reduced the occurrence of flares”.

Q: What about the “Improvement over placebo, responders (3% window)” value (“Improvement … (3% window)” below) (SLE patients [3]; Group I: All patients) of the same compound?
A: The value was 39.8%.

Q: And the “Improvement over placebo, responders (5% window)” value (shortened to “Improvement … (5% window)”) (SLE patients [3]; Group I: All patients)?
A: The value was 32.1%.

Q: And the “Improvement over placebo, responders (10% window)” value (“Improvement … (10% window)” for short) (SLE patients [3]; Group I: All patients)?
A: Its value is 38.0%.

Q: What about the “Responders (3% window), number of patients” value (SLE patients [3]; Group I: All patients, N = 170) of the same compound?
A: The value was 77.

Q: What about the “Responders (3% window), percent” value (SLE patients [3]; Group I: All patients, N = 170) of the same compound?
A: The value was 45.3%.

Q: What about the “Responders (5% window), number of patients” value (SLE patients [3]; Group I: All patients, N = 170) of the same compound?
A: Its value is 79.

Q: And the “Responders (5% window), percent” value (SLE patients [3]; Group I: All patients, N = 170)?
A: The value was 46.5%.

Q: And the “Responders (10% window), number of patients” value (SLE patients [3]; Group I: All patients, N = 170)?
A: Its value is 92.

Q: What about the “Responders (10% window), percent” value (SLE patients [3]; Group I: All patients, N = 170) of the same compound?
A: The value was 54.1%.

Q: What about the “Improvement … (3% window)” value (SLE patients [3]; [8]) of the same compound?
A: The value was 54.4%.

Q: And the “Improvement … (5% window)” value (SLE patients [3]; [8])?
A: Its value is 47.1%.

Q: And the “Improvement … (10% window)” value (SLE patients [3]; [8])?
A: Its value is 51.1%.

Q: What about the “Responders (3% window), number of patients” value (SLE patients [3]; [9]) of the same compound?
A: Its value is 72.

Q: What about the “Responders (3% window), percent” value (SLE patients [3]; [9]) of the same compound?
A: The value was 54.5%.

Q: And the “Responders (5% window), number of patients” value (SLE patients [3]; [9])?
A: The value was 73.

Q: And the “Responders (5% window), percent” value (SLE patients [3]; [9])?
A: Its value is 55.3%.

Q: What about the “Responders (10% window), number of patients” value (SLE patients [3]; [9]) of the same compound?
A: Its value is 84.

Q: What about the “Responders (10% window), percent” value (SLE patients [3]; [9]) of the same compound?
A: Its value is 63.6%.

Q: What about the “Improvement … (3% window)” value (SLE patients [3]; [10]) of the same compound?
A: The value was 64.3%.

Q: What about the “Improvement … (5% window)” value (SLE patients [3]; [10]) of the same compound?
A: The value was 68.6%.

Q: And the “Improvement … (10% window)” value (SLE patients [3]; [10])?
A: Its value is 82.2%.

Q: What about the “Responders (3% window), number of patients” value (SLE patients [3]; [11]) of the same compound?
A: Its value is 39.

Q: What about the “Responders (3% window), percent” value (SLE patients [3]; [11]) of the same compound?
A: The value was 53.4%.

Q: What about the “Responders (5% window), number of patients” value (SLE patients [3]; [11]) of the same compound?
A: Its value is 40.

Q: What about the “Responders (5% window), percent” value (SLE patients [3]; [11]) of the same compound?
A: Its value is 54.8%.

Q: And the “Responders (10% window), number of patients” value (SLE patients [3]; [11])?
A: Its value is 45.

Q: And the “Responders (10% window), percent” value (SLE patients [3]; [11])?
A: The value was 61.6%.

Q: Which results are given for `C[C@]12CC[C@H](O)CC1=CC[C@@H]1[C@@H]2CC[C@]2(C)C(=O)CC[C@@H]12` [DHEA form II, dehydroepiandrosterone]?
A: Rate of absorption [4]: rapid rate of absorption (greater than the form I polymorph); Uptake by the GI tract [4]: good uptake by the GI tract; Stability [5]: stable under ambient conditions

Q: With `C[C@]12CC[C@H](O)CC1=CC[C@@H]1[C@@H]2CC[C@]2(C)C(=O)CC[C@@H]12` [DHEA form I, dehydroepiandrosterone] as the compound, how does the “Uptake by the GI tract” value [4] read?
A: Its value is “good uptake by the GI tract”.

Q: And the Stability [5]?
A: Its Stability is “highly stable under ambient conditions”.
